From PubChem BioAssay (NCI) come the findings set out here.

Among the test systems are NCI-H23 lung; NCI/ADR-RES ovarian; OVCAR-4 ovarian; OVCAR-8 ovarian; SF-268 CNS; SK-MEL-2 melanoma; SK-MEL-5 melanoma; SW-620 colon; UACC-257 melanoma.
What all share (test): NCI-60 cell line screen, 48 h

Each structure is given as a SMILES string.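 Briefly, cells in 96-well plates were exposed to five compound concentrations for 48 h, and endpoints were estimated by linear interpolation. GI50: concentration for 50% inhibition of growth. Definition used: TGI = concentration required for complete inhibition of growth.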

As for `CSC1C(=O)Nc2ccc3ccccc3c21` (configuration not stated), the TGI in the test on NCI-H23 lung is more than 100 µM; in the test with NCI/ADR-RES ovarian, more than 100 µM; with OVCAR-4 ovarian, 39.9 µM; in the test with OVCAR-8 ovarian, 34.9 µM; in the test with SF-268 CNS, 38 µM; in the test on SK-MEL-2 melanoma it was more than 100 µM. In addition, the figures for the TGI with SK-MEL-5 melanoma, with SW-620 colon and in the test with UACC-257 melanoma were 57.4 µM, 49 µM and 44.8 µM, respectively.

Turning to `CCCC(O)c1cn(C(NC(=O)c2ccccc2)P(=O)(OCC)OCC)nn1` (configuration not stated), the TGI in the test with NCI-H23 lung, with NCI/ADR-RES ovarian, in the test on OVCAR-4 ovarian, in the test with OVCAR-8 ovarian, in the test with SF-268 CNS and with SK-MEL-2 melanoma was more than 100 µM each time. Also, the TGI with SK-MEL-5 melanoma, in the test with SW-620 colon and in the test with UACC-257 melanoma was more than 100 µM throughout.

`Oc1ccc(Cl)cc1-c1cc(-c2ccccc2)nc(NCN2CCCCC2)n1`: the TGI in the test with NCI-H23 lung, in the test with NCI/ADR-RES ovarian, in the test with OVCAR-4 ovarian, in the test with OVCAR-8 ovarian, in the test with SF-268 CNS and in the test with SK-MEL-2 melanoma was more than 100 µM throughout. Besides, the TGI with SK-MEL-5 melanoma, with SW-620 colon and with UACC-257 melanoma was more than 100 µM in each case.

Consider `C=CC(OC(C)=O)c1ccc(OC(=O)C(C)C)c(OC)c1` (configuration not stated), for which the TGI with NCI-H23 lung turned out to be 47.7 µM; with NCI/ADR-RES ovarian, 60.8 µM; in the test on OVCAR-4 ovarian it was 16.2 µM; in the test with OVCAR-8 ovarian, 11.1 µM; in the test with SF-268 CNS, 38.9 µM; in the test on SK-MEL-2 melanoma, 15.8 µM. For the same compound, the TGI with SK-MEL-5 melanoma worked out at 30.1 µM; in the test with SW-620 colon it was 7.69 µM; with UACC-257 melanoma, 23.5 µM.

`O=C(O)C[C@@H]1[C@@H](O)[C@@H](O)CN2C(=O)c3ccccc3[C@H]12`: the TGI in the test with NCI-H23 lung, in the test on NCI/ADR-RES ovarian, in the test with OVCAR-4 ovarian, in the test with OVCAR-8 ovarian, with SF-268 CNS and in the test on SK-MEL-2 melanoma was more than 100 µM each time. Also, the TGI in the test on SK-MEL-5 melanoma, with SW-620 colon and in the test with UACC-257 melanoma was more than 100 µM throughout.

As for `O=c1oc2ccc([N+](=O)[O-])cc2c(Nc2ccc3c(c2)Sc2ccccc2O3)c1[N+](=O)[O-]`, the TGI in the test with NCI-H23 lung is 39.1 µM; in the test with NCI/ADR-RES ovarian, 85.5 µM; in the test with OVCAR-4 ovarian it was 98.2 µM; in the test on OVCAR-8 ovarian, 77.3 µM; in the test on SF-268 CNS, 61.6 µM; in the test on SK-MEL-2 melanoma, 40.4 µM. In addition, the figures for the TGI in the test on SK-MEL-5 melanoma, in the test with SW-620 colon and in the test with UACC-257 melanoma were 41.1 µM, 80.6 µM and 69 µM, respectively.

As to `COC(=O)/C=C\C(C#N)(C#N)N=Cc1ccccc1`, the TGI came out at 25.3 µM in the test with NCI-H23 lung; 9.03 µM in the test with NCI/ADR-RES ovarian; 13.5 µM with OVCAR-4 ovarian; 4.38 µM with OVCAR-8 ovarian; 11.4 µM in the test on SF-268 CNS; 32.9 µM in the test with SK-MEL-2 melanoma. Moreover, the figures for the TGI in the test on SK-MEL-5 melanoma, with SW-620 colon and in the test with UACC-257 melanoma were 28 µM, 5.54 µM and 12.8 µM, respectively.

Consider `CSc1c(C#N)c(N)nc2c(N=Nc3ccc(Br)cc3)c(N)nn12`, for which the TGI with NCI-H23 lung turned out to be 14.4 µM; with NCI/ADR-RES ovarian, 47.5 µM; in the test on OVCAR-4 ovarian, 15.1 µM; in the test on OVCAR-8 ovarian, 23.4 µM; in the test on SF-268 CNS, 13.2 µM; in the test with SK-MEL-2 melanoma it was 17.2 µM. The TGI worked out at 40.2 µM in the test with SK-MEL-5 melanoma, 12.7 µM in the test with SW-620 colon and 21.4 µM in the test with UACC-257 melanoma.

For `CCO[C@@]1(COCc2ccccc2)OC(=O)C[C@@H]1N1C(=O)OC[C@@H]1c1ccccc1`, the TGI with NCI-H23 lung, with NCI/ADR-RES ovarian, in the test on OVCAR-4 ovarian, in the test on OVCAR-8 ovarian, in the test on SF-268 CNS and with SK-MEL-2 melanoma was more than 100 µM each time. In addition, the TGI in the test on SK-MEL-5 melanoma, in the test with SW-620 colon and in the test with UACC-257 melanoma was more than 100 µM in each case.

With `COC12CCCN1c1ccn(Cc3ccccc3)c(=O)c1C2=O` (configuration not stated), the TGI in the test on NCI-H23 lung, with NCI/ADR-RES ovarian, in the test on OVCAR-4 ovarian, in the test on OVCAR-8 ovarian, with SF-268 CNS and in the test on SK-MEL-2 melanoma was more than 100 µM each time. In addition, the TGI in the test on SK-MEL-5 melanoma, with SW-620 colon and in the test with UACC-257 melanoma was more than 100 µM throughout.

`CCCCCCNC(=O)CCC(NC(=O)c1ccc(N(C)Cc2cnc3nc(N)nc(N)c3n2)cc1)C(=O)NCCCCCC` (configuration not stated): the TGI in the test with NCI-H23 lung, with NCI/ADR-RES ovarian, in the test on OVCAR-4 ovarian, in the test with OVCAR-8 ovarian, in the test on SF-268 CNS and with SK-MEL-2 melanoma was more than 100 µM in each case. Also, the TGI with SK-MEL-5 melanoma, in the test on SW-620 colon and in the test with UACC-257 melanoma was more than 100 µM in each case.

Regarding `CCOC(=O)c1sc2nc(SC)nc3c2c1NCN3c1ccc(F)c(F)c1`, the TGI with NCI-H23 lung is 75.3 µM; in the test on NCI/ADR-RES ovarian it was more than 88.8 µM; with OVCAR-4 ovarian, 17.7 µM; in the test on OVCAR-8 ovarian, 29.4 µM; in the test on SF-268 CNS it was more than 100 µM; in the test with SK-MEL-2 melanoma, more than 100 µM. Besides, the TGI with SK-MEL-5 melanoma, in the test on SW-620 colon and in the test with UACC-257 melanoma was more than 100 µM each time.

Regarding `CCOC(=O)c1c(Br)c(-c2ccc(OC)cc2)c(Br)n1C`, the TGI is more than 100 µM in the test with NCI-H23 lung; 55.3 µM with NCI/ADR-RES ovarian; more than 100 µM in the test with OVCAR-4 ovarian; more than 100 µM in the test on OVCAR-8 ovarian; more than 100 µM in the test with SF-268 CNS; 39.1 µM with SK-MEL-2 melanoma. Besides, the TGI in the test with SK-MEL-5 melanoma turned out to be 22.4 µM; in the test on SW-620 colon, 38.2 µM; with UACC-257 melanoma, 95.8 µM. For the same compound, the GI50 in the test with NCI/ADR-RES ovarian was 23.7 µM.

`CC(=O)OC(Cc1ccc2ccccc2n1)(C(F)(F)F)C(F)(F)F`: the TGI with NCI-H23 lung is 6.95 µM; in the test on NCI/ADR-RES ovarian, more than 19.6 µM; with OVCAR-4 ovarian, 7.08 µM; in the test with OVCAR-8 ovarian, 3.96 µM; with SF-268 CNS, 7.54 µM; in the test with SK-MEL-2 melanoma, 4.36 µM. Further, the results for the TGI in the test with SK-MEL-5 melanoma, in the test with SW-620 colon and with UACC-257 melanoma were 1.38 µM, 12 µM and 0.328 µM, respectively.
